These results are taken from patent publication US11371994B2, “Phosphorylated Akt-specific capture agents, compositions, and methods of using and making” (California Institute of Technology, priority 2013, dated 2022).

Square brackets hold non-standard residues; d marks the D form. Ends that are not written are not given here. dPra = C#CC[C@@H](N)C(=O)O

T1 sequence (P31751 whole entry): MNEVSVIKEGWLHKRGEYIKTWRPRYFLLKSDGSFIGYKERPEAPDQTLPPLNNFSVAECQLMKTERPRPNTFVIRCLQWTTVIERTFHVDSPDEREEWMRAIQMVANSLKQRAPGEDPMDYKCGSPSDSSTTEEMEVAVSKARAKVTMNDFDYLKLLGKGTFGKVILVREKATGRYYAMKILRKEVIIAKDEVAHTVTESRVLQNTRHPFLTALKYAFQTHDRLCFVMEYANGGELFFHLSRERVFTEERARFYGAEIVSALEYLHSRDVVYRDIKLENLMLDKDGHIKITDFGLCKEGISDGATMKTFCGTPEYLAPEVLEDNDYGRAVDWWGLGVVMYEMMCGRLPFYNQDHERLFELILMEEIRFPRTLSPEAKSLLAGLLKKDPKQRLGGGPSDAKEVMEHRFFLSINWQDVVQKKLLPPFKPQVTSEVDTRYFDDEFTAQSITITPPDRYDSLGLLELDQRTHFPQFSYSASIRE

In one test the target is Akt2 (Homo sapiens, UniProt P31751). Put plainly: Single component ELISA, PCC agent as capture or detection agent (relative affinity). More on the design: purchased Abcam. The format is binding. Particulars: relative affinity; read-out: affinity by single-component immunoassay. The source says: FIG. 23: A. ELISA assays in which the PCC Agents are utilized as either as surface-localized capture agents (for N-tL, C-tL) or as the detection agent (for mono-L, bi-L). Such assays provide relative affinity measurements, which are given as EC50 values in the key. […] C. C-tL distinguishes the full length Akt2 from isoform proteins Akt1 and Akt3. D. The 32 amino acid long C terminal fragment from Akt2, Akt1 and Akt3. The hydrophobic motif is highlighted in blue. pS refers to phospho-serine. […] F. Selectivity assays: Biotinylated ligands or biotinylated pS473 antibody is immobilized on streptavidin-agarose and treated with OVCAR3 cell lysate. The eluents are stained with a pan-Akt antibody or pS473 Akt antibody.
Sequence of Akt2 (P31751 whole entry, the tested form may be a part, canonical isoform): as the sequence (P31751 whole entry) above
1.25 μM biotinylated ligand was prepared by diluting the 1 mM stock in binding buffer (25 mM tris chloride, pH=7.4, 150 mM NaCl, 0.1% BSA, 0.05% Tween 20). The prepared ligand solution or 0.125% DMSO in buffer (buffer control) was immobilized on a High Capacity Streptavidin 96 well plate (Thermo Scientific). After washing away the excess ligand, the plate was blocked overnight with 1% BSA/25 mM tris chloride, pH=7.4/150 mM NaCl, 0.05% Tween 20. 2.5 μM solutions of the His6 (SEQ ID NO:28) tagged target phosphopeptide epitope Akt2 amino acids 450-481, His6 (SEQ ID NO:28) tagged Akt1 amino acids 449-480, His6 (SEQ ID NO:28) tagged Akt3 amino acids 448-479 were added to each of the wells. Following three washes with the binding buffer, the plate was treated for an hour with a 1:1000 dilution of anti His6 (SEQ ID NO:28) mouse monoclonal antibody. A 1:10,000 dilution of goat anti mouse antibody-Horse Radish Peroxide conjugate in binding buffer was added to the wells. The plates were washed four times, five minutes each, with 0.05% Tween 20/TBS (25 mM tris chloride, pH=7.5, 150 mM NaCl) and once with TBS (25 mM tris chloride, pH=7.5, 150 mM NaCl). Color was developed by adding TMB substrate (KPL) to each well. The reaction was quenched with 0.5 M H2SO4. The A450 measured on a 96-well plate reader. The Net A450 was obtained by subtracting the absorbance value for the blank control (no immobilized ligand) from each of the triplicate values obtained for the ligand-epitope interaction. The selectivity assay with full length His6 (SEQ ID NO:28) tagged Akt1, Akt2 and Akt3 was performed following the same protocol, using 25 nM protein instead of 2.5 μM His6 tagged peptide epitope.
In the case of `CC(=O)NC(CCCCn1cc(C[C@@H](NC(=O)CCCCn2cc(C[C@@H](NC(=O)[C@@H](Cc3ccccc3)NC(=O)[C@@H](Cc3ccc(O)cc3)NC(=O)CNC(=O)[C@@H](CC(N)=O)NC(=O)[C@H](N)Cc3c[nH]cn3)C(=O)O)nn2)C(=O)N[C@H](Cc2c[nH]c3ccccc23)C(=O)N[C@H](CCCCN)C(=O)N[C@@H](C(=O)N[C@H](CCCCN)C(=O)N[C@H](CC(C)C)C(N)=O)C(C)C)nn1)C(=O)NCCOCCOCCOCCC(=O)NCCNC(=O)CCCC[C@@H]1SC[C@@H]2NC(=O)N[C@@H]21` (stereo partly shown) [bi-L], the EC50 was roughly 1000 nM.
Turning to `CC(=O)NC(CCCCn1cc(C[C@@H](NC(C)=O)C(=O)N[C@H](Cc2c[nH]c3ccccc23)C(=O)N[C@H](CCCCN)C(=O)N[C@@H](C(=O)N[C@H](CCCCN)C(=O)N[C@H](CC(C)C)C(N)=O)C(C)C)nn1)C(=O)NCCOCCOCCOCCC(=O)NCCNC(=O)CCCC[C@@H]1SC[C@@H]2NC(=O)N[C@@H]21` (stereo partly shown) [mono-L], the EC50 was roughly 3000 nM.

The subject of a further test is mouse anti His6 antibody and anti mouse-alkaline phosphatase. Put plainly: Elimination of peptide binders to antibody, on-bead BCIP colour test. It counts as binding. Particulars: colour intensity of beads; clear beads are not background binders. As for the experimental part: Since a preclear screen was not performed against the mouse-Anti His6 antibody and the anti-mouse-alkaline phosphatase antibody, to eliminate peptide binders to the antibodies, all the dark colored peptide hits obtained in the earlier target screen were synthesized on Tentagel-S—NH2 resin. 10 beads of each sequence was taken in spinnex tubes, equilibrated in binding buffer, and then treated with a 1:1000 diluted solution of mouse anti His6 antibody (Abcam) for an hour at 4° C. Following three five minute washes with the binding buffer, a 1:10,000 diluted solution of anti mouse-alkaline phosphatase was added and the shaken for one hour at 4° C. The beads were washed three times for five minutes each with wash buffer 3, followed by three five minute washes with wash buffer 4. The beads were then developed in BCIP solution for thirty minutes and quenched with 0.1 N HCl. The color intensity of the different sequences is recorded in Table 5, along with the probability that the sequence is a binder to the protein and not a background binder (clear beads). The probability arises from the poor resolution of certain amino acid standards in the Edman sequencer during sequencing the hits from the N terminal triligand target screen.
In the case of “(D-Pra)-ssGry ([dPra][dS][dS]G[dR][dY]) [SEQ ID NO: 14, on-bead 3° peptide hit of N-tL screen]”, the Color entry is reported as “No color”.
Consider “(D-Pra)-yyrfG ([dPra][dY][dY][dR][dF]G) [SEQ ID NO: 13, on-bead 3° peptide hit of N-tL screen]”, for which the Color entry is “No color”.
With “SEQ ID NO: 52: on-bead peptide D-Pra-yvyrf, hit of N-tL screen ([dPra][dY][dV][dY][dR][dF])”, the Color entry is recorded as “light”.
Regarding “SEQ ID NO: 53: on-bead peptide D-Pra-sfrrf, hit of N-tL screen ([dPra][dS][dF][dR][dR][dF])”, the Color entry was “light”.
For “SEQ ID NO: 58: on-bead peptide D-Pra-rriyy, hit of N-tL screen ([dPra][dR][dR][dI][dY][dY])”, the Color result is “dark”.
For “SEQ ID NO: 60: on-bead peptide D-Pra-kfqfr, hit of N-tL screen ([dPra][dK][dF][dQ][dF][dR])”, the Color result is listed as “light”.
Turning to “SEQ ID NO: 61: on-bead peptide D-Pra-lfqfr, hit of N-tL screen ([dPra][dL][dF][dQ][dF][dR])”, the Color entry is recorded as “light”.
Same read-out and setting: then “SEQ ID NO: 62: on-bead peptide D-Pra-kftfr, hit of N-tL screen ([dPra][dK][dF][dT][dF][dR])”, with “light”; and “SEQ ID NO: 63: on-bead peptide D-Pra-lftfr, hit of N-tL screen ([dPra][dL][dF][dT][dF][dR])”, with “light”; and “SEQ ID NO: 64: on-bead peptide D-Pra-rdrfr, hit of N-tL screen ([dPra][dR][dD][dR][dF][dR])”, with “No color”.
In the case of “SEQ ID NO: 65: on-bead peptide D-Pra-rnrfr, hit of N-tL screen ([dPra][dR][dN][dR][dF][dR])”, the Color entry is reported as “medium”.

The next test addresses T1, Akt (Homo sapiens, UniProt P31751).
T1 construct: endogenous in cells; host or cells: OVCAR3
Kind of test: OVCAR3 lysate pull-down (immunoprecipitation) assay. It counts as binding. To be noted: eluents stained with pan-Akt antibody. As to the method:
OVCAR3 cells (ATCC) were grown in RPMI-1640 media containing 20% fetal bovine serum. Passage three cells were grown to ˜80% confluence. Cells were lysed with lysis buffer (10 mM Tris-Cl (pH=7.5), 100 mM NaCl, 1% (v/v) Triton X-100, 0.1% SDS (w/v), 0.5% deoxycholate, 1 mM DTT, 1 mM EDTA, 1× PhosStop phosphatase inhibitors (Roche), 1× Complete protease inhibitors (Roche)) and the amount of protein measured using BCA Protein Assay Kit (Pierce Biotechnologies, Inc). Streptavidin-agarose resin solution (EMD) was swelled in TBST (25 mM tris chloride, pH=7.5, 150 mM NaCl, 0.05% Tween-20). Each of the biotinylated ligands was immobilized on the Streptavidin-agarose resin by adding 7.2 μL of 1 mM ligand stock (DMSO) to 10 μL of the swelled streptavidin-agarose resin. For the blank control, the resin was treated with 7.2 μL of 1 mM biotinylated acyl glycine. […] After shaking overnight at 4° C., 50 μM D-biotin was added to the resin to block any remaining sites. The resin was washed with TBST five times, for fifteen minutes each. The resin was then swelled in binding buffer for two hours. To each of the immobilized ligands, 200 μL OVCAR3 cell lysate (1.9 mg/ml) was added. The tubes were shaken at 4° C. for 18 hours. The beads were extensively washed, three times for fifteen minutes in binding buffer, three times (fifteen minutes) in TBST, and three times (fifteen minutes) in TBS to remove unbound proteins. The resin bound proteins were eluted by adding 40 μL of 2×SDS-PAGE sample loading buffer (BioRad) and heating at 95° C. for five minutes. A 1:10 diluted sample of lysate in sample loading buffer was prepared by mixing 1 μL of the sample with 9 μL sample loading buffer and denaturing the sample by heating at 95° C. for five minutes. 10 μL of each sample was loaded on a 12% SDS-PAGE gels (BioRad) and run for 80 minutes at 110 volts. Three identical gels were loaded and run at the same time. One gel was used for Coomassie staining with Coomassie Fluor Orange Protein Gel Stain (Molecular Probes) following the manufacturer's protocol. The two other gels were transferred to nitrocellulose membranes by the semidry transfer method, blocked for two hours at 4° C. with 5% non-fat milk, and treated overnight at 4° C. with a 1:1000 dilution of pan-Akt rabbit monoclonal antibody (Cell Signaling Technology) and a 1:1000 dilution of pS473 Akt rabbit monoclonal antibody (Cell Signaling Technology), respectively, in 0.5% non-fat milk. The membranes were washed and treated for an hour with a 1:10,000 dilution of monoclonal mouse anti-rabbit-HRP secondary antibody (Cell Signaling Technology) in 0.5% milk. After five washes of five minutes each with TBST and one wash of five minutes with TBS, the blots were developed with West Dura ECL substrate (Thermo Scientific) and imaged on film.
On to `CC(=O)NC(CCCCn1cc(C[C@@H](NC(C)=O)C(=O)N[C@H](Cc2c[nH]c3ccccc23)C(=O)N[C@H](CCCCN)C(=O)N[C@@H](C(=O)N[C@H](CCCCN)C(=O)N[C@H](CC(C)C)C(N)=O)C(C)C)nn1)C(=O)NCCOCCOCCOCCC(=O)NCCNC(=O)CCCC[C@@H]1SC[C@@H]2NC(=O)N[C@@H]21` (stereo partly shown) [mono-L], for which the “immunoprecipitation of Akt from OVCAR3 cell lysate” value (“immunoprecipitation of Akt” below) is “sufficient selectivity to immunoprecipitate Akt from OVCAR3 cancer cell lysate”.
Same read-out and setting: then “Bi5: biligand candidate with hnGii-(D-Pra) as the 2° peptide arm (peptide 1 [dPra][dW][dK][dV][dK][dL]; peptide 2 [dH][dN]G[dI][dI][dPra]; not fully specified (bridges))”, with “did not show any Akt pulldown”.
“Bi6: biligand candidate with hnGGd-(D-Pra) as the 2° peptide arm (peptide 1 [dPra][dW][dK][dV][dK][dL]; peptide 2 [dH][dN]GG[dD][dPra]; not fully specified (bridges))”: the “immunoprecipitation of Akt” value is “did not show any Akt pulldown”.
As to “N-tri2: N terminal triligand candidate: (D-Pra)-ssGry clicked to anchor-3N (peptide 1 [dW][dK][dV][dK][dL]; peptide 2 [dH][dN]G[dY][dF]; peptide 3 [dPra][dS][dS]G[dR][dY]; not fully specified (bridges); also: arms clicked by triazole to anchor-3N scaffold (not listed))”, the “immunoprecipitation of Akt” value is reported as “immunoprecipitate Akt2 from OVCAR3 cells”.

Staying with this test, now noted: eluents stained with pan-Akt antibody; listed as Bi2.
Take `CC(=O)NC(CCCCn1cc(C[C@@H](NC(=O)CCCCn2cc(C[C@@H](NC(=O)[C@@H](Cc3ccccc3)NC(=O)[C@@H](Cc3ccc(O)cc3)NC(=O)CNC(=O)[C@@H](CC(N)=O)NC(=O)[C@H](N)Cc3c[nH]cn3)C(=O)O)nn2)C(=O)N[C@H](Cc2c[nH]c3ccccc23)C(=O)N[C@H](CCCCN)C(=O)N[C@@H](C(=O)N[C@H](CCCCN)C(=O)N[C@H](CC(C)C)C(N)=O)C(C)C)nn1)C(=O)NCCOCCOCCOCCC(=O)NCCNC(=O)CCCC[C@@H]1SC[C@@H]2NC(=O)N[C@@H]21` (stereo partly shown) [bi-L]: the “immunoprecipitation of Akt” value is listed as “best candidate”.

The same test, now with this note: eluents stained with pan-Akt antibody; listed as biligand.
On to `CC(=O)NC(CCCCn1cc(C[C@@H](NC(=O)CCCCn2cc(C[C@@H](NC(=O)[C@@H](Cc3ccccc3)NC(=O)[C@@H](Cc3ccc(O)cc3)NC(=O)CNC(=O)[C@@H](CC(N)=O)NC(=O)[C@H](N)Cc3c[nH]cn3)C(=O)O)nn2)C(=O)N[C@H](Cc2c[nH]c3ccccc23)C(=O)N[C@H](CCCCN)C(=O)N[C@@H](C(=O)N[C@H](CCCCN)C(=O)N[C@H](CC(C)C)C(N)=O)C(C)C)nn1)C(=O)NCCOCCOCCOCCC(=O)NCCNC(=O)CCCC[C@@H]1SC[C@@H]2NC(=O)N[C@@H]21` (stereo partly shown) [bi-L], for which the “immunoprecipitation of Akt” value was “higher selectivity to immunopreciptate Akt from OVCAR3 cell lysate”.
